This assay concerns the target T1, recombinant human AKR1C3 (Homo sapiens, UniProt P42330).
T1 construct: GST (cleaved yes); made in house; host or cells: E. coli
T1 sequence (P42330 1-323): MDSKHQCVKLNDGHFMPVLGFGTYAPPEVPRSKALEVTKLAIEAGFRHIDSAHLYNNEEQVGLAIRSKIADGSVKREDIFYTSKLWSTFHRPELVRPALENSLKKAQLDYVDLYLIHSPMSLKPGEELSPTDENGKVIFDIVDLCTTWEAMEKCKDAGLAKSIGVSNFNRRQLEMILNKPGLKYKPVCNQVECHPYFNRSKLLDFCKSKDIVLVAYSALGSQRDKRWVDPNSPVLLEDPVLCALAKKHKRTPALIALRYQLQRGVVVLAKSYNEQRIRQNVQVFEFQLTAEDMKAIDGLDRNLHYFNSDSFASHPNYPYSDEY
Briefly: AKR1C3-inhibitory activity assay (generation of Coumberol from Coumberone). The format is biochemical. Conditions: Coumberone 0.3 μM, NADPH 10 μM, 22° C., typically 90 min, average or median values. As for the experimental part:
The AKR1C3-inhibitory activity of the substances of the present invention was measured in the AKR1C3 assay described in the paragraphs below.
Essentially, the enzyme activity is measured by quantification of the generation of Coumberol from Coumberone (Halim et al. J. AM. CHEM. SOC. 2008, 130:14123-14128 and Yee et al. Proc. Natl. Acad. Sci. USA 2006, 103:13304-13309). In this test, the increase of the highly fluorescent Coumberol by NADPH- (nicotinamide adenine dinucleotide phosphate)-dependent reduction of the non-fluorescent Coumberone by AKR1C3 was determined.
The enzyme used was recombinant human AKR1C3 (Aldo-keto reductase family 1 member C3; GenBank Accession No. NM_003739). This was expressed in E. coli as GST (glutathione S transferase) fusion protein and purified by glutathione Sepharose affinity chromatography. The GST was removed by digestion with thrombin and subsequent size exclusion chromatography (Dufort, I., Rheault, P., Huang, X F., Soucy, P., and Luu-The, V., Endocrinology 140, 568-574 (1999)).
For the assay, 50 nl of a 100-fold concentrated solution of the test substance in DMSO were pipetted into a black low-volume 384-well microtiter plate (Greiner Bio-One, Frickenhausen, Germany), 2.5 μl of a solution of AKR1C3 in assay buffer [50 mM potassium phosphate buffer pH 7, 1 mM DTT, 0.0022% (w/v) Pluronic F-127, 0.01% BSA (w/v) and protease inhibitor cocktail (Complete, EDTA-free Protease Inhibitor Cocktail from Roche)] were added and the mixture was incubated for 15 min to allow pre-binding of the substances to the enzyme prior to the enzyme reaction. The enzyme reaction was then started by addition of 2.5 μl of a solution of NADPH (20 μM→final concentration in 5 μl of assay volume is 10 μM) and Coumberone (0.6 μM→final concentration in 5 μl of assay volume is 0.3 μM) in assay buffer, and the resulting mixture was incubated at 22° C. for the reaction time of typically 90 min. The concentration of the AKR1C3 and the reaction time was adapted to the respective activity of the enzyme preparation and adjusted such that the assay was carried out in the linear range. Typical AKR1C3 concentrations were in the region of 1 nM. The reaction was stopped by addition of 2.5 μl of a stop solution consisting of 3 μM EM-1404 as inhibitor (U.S. Pat. No. 6,541,463) in 50 mM HEPES pH7.5 (3 μM EM-1404→final concentration in 7.5 μl of assay volume is 1 μM). The fluorescence of the Coumberole was then measured at 520 nm (excitation at 380 nm) using a suitable measuring instrument (Pherastar from BMG Labtechnologies). The intensity of the fluorescence was used as a measure of the amount of Coumberole formed and thus of the enzyme activity of AKR1C3. The data were normalized (enzyme reaction without inhibitor=0% inhibition; all other assay components, but no enzyme=100% inhibition).
For `C[C@@H]1CN(S(=O)(=O)c2ccccc2)C[C@H](C)N1C(=O)c1c[nH]nn1` [Example 18, [(2R,6S)-2,6-dimethyl-4-(phenylsulfonyl)piperazin-1-yl](1H-1,2,3-triazol-4-yl)methanone], the IC50 (usually the concentration at which inhibition is half-maximal) worked out at 11 nM. As to `COc1ccc(C#N)cc1S(=O)(=O)N1CCN(C(=O)c2cnn[nH]2)CC1(C)C` [Example 139, 3-{[2,2-dimethyl-4-(1H-1,2,3-triazol-5-ylcarbonyl)piperazin-1-yl]sulfonyl}-4-methoxybenzonitrile], the IC50 is 285 nM. Next, `C[C@@H]1CN(C(=O)c2cnn[nH]2)[C@@H](C)CN1S(=O)(=O)c1ccccc1Cl` [Example 73, {(2S,5R)-4-[(2-chlorophenyl)sulfonyl]-2,5-dimethylpiperazin-1-yl}(1H-1,2,3-triazol-5-yl)methanone]: 1 nM. For the compound `CC1(C)CN(C(=O)c2cnn[nH]2)CCN1S(=O)(=O)c1cc(F)c(F)cc1F` [Example 128, {3,3-dimethyl-4-[(2,4,5-trifluorophenyl)sulfonyl]piperazin-1-yl}(1H-1,2,3-triazol-5-yl)methanone], the IC50 came out at 18 nM. Consider `C[C@@H]1CN(S(=O)(=O)c2cccc(Cl)c2)C[C@H](C)N1C(=O)c1c[nH]nn1` [Example 48, {(2R,6S)-4-[(3-chlorophenyl)sulfonyl]-2,6-dimethylpiperazin-1-yl}(1H-1,2,3-triazol-4-yl)methanone], for which the IC50 was 3 nM.

`C[C@@H]1CN(S(=O)(=O)c2cc(F)ccc2F)C[C@H](C)N1C(=O)c1c[nH]nn1` [Example 59, {(2R,6S)-4-[(2,5-difluorophenyl)sulfonyl]-2,6-dimethylpiperazin-1-yl}(1H-1,2,3-triazol-4-yl)methanone]: the 50% inhibitory concentration (IC50) is 4 nM. Next, `C[C@@H]1CN(C(=O)c2cnn[nH]2)[C@@H](C)CN1S(=O)(=O)c1ccc(F)c(Cl)c1` [Example 91, {(2S,5R)-4-[(3-chloro-4-fluorophenyl)sulfonyl]-2,5-dimethylpiperazin-1-yl}(1H-1,2,3-triazol-5-yl)methanone]: 1 nM. For `CC1(C)CN(C(=O)c2c[nH]nn2)CCN1S(=O)(=O)c1ccccc1` [Example 19, [3,3-dimethyl-4-(phenylsulfonyl)piperazin-1-yl](1H-1,2,3-triazol-4-yl)methanone] the value was 17 nM; for `C[C@@H]1CN(S(=O)(=O)c2cc(C(F)(F)F)cc(C(F)(F)F)c2)C[C@H](C)N1C(=O)c1cnn[nH]1` [Example 98, [(2R,6S)-4-{[3,5-bis(trifluoromethyl)phenyl]sulfonyl}-2,6-dimethylpiperazin-1-yl](1H-1,2,3-triazol-5-yl)methanone], 56 nM; for `CC1(C)CN(C(=O)c2cnn[nH]2)CCN1S(=O)(=O)c1cccc([N+](=O)[O-])c1` [Example 112, {3,3-dimethyl-4-[(3-nitrophenyl)sulfonyl]piperazin-1-yl}(1H-1,2,3-triazol-5-yl)methanone], 24 nM.

For `Cc1cc(C)cc(S(=O)(=O)N2CCN(C(=O)c3c[nH]nn3)CC2(C)C)c1` [Example 22, {4-[(3,5-dimethylphenyl)sulfonyl]-3,3-dimethylpiperazin-1-yl}(1H-1,2,3-triazol-4-yl)methanone], the IC50 is 2 nM.

Consider `C[C@@H]1CN(C(=O)c2cnn[nH]2)[C@@H](C)CN1S(=O)(=O)c1cccc(OC(F)(F)F)c1` [Example 85, [(2S,5R)-2,5-dimethyl-4-{[3-(trifluoromethoxy)phenyl]sulfonyl}piperazin-1-yl](1H-1,2,3-triazol-5-yl)methanone], for which the IC50 was determined as 2 nM. In the case of `Cc1c(Cl)cccc1S(=O)(=O)N1C[C@H](C)N(C(=O)c2cnn[nH]2)C[C@H]1C` [Example 77, {(2S,5R)-4-[(3-chloro-2-methylphenyl)sulfonyl]-2,5-dimethylpiperazin-1-yl}(1H-1,2,3-triazol-5-yl)methanone], the IC50 worked out at 2 nM. In the case of `CC1(C)CN(C(=O)c2cnn[nH]2)CCN1S(=O)(=O)c1ccc(Br)cc1` [Example 109, {4-[(4-bromophenyl)sulfonyl]-3,3-dimethylpiperazin-1-yl}(1H-1,2,3-triazol-5-yl)methanone], the IC50 was 4 nM.

(Values after patent US20200079758A1, “[4-(PHENYLSULFONYL)PIPERAZIN-1-YL](1H-1,2,3-TRIAZOL-4-YL)METHANONES” (priority 2016, published 2020).)
